Numbered stars: 1 amine (or outer) side, 2 acyl side, 3 side chain; on linkers, the order of the positions; unused ones are H or OH. Square brackets hold non-standard residues; d marks the D form. Peptide text beside a SMILES is read from it. * marks the point of attachment. Exatecan = CC[C@@]1(O)C(=O)OCc2c1cc1n(c2=O)Cc2c-1nc1cc(F)c(C)c3c1c2[C@@H](N*)CC3; Propanoyl(3-maleimido) = O=C1C=CC(=O)N1CCC(=O)*; PABC = O=C(OCc1ccc(N[*:1])cc1)[*:2]
What was measured:
[1] = Reverse-Phase HPLC retention time correlation study (hydrophobicity); format: physicochemical; conditions: RP-HPLC; high Rt associated to hydrophobic constructs, low Rt to hydrophilic ones
Procedure: • Column: Phenomenex Gemini NX 5m, C18, 110 Å, 150 × 4.6 mm • Instrument: Shimadzu LC-2030 • Mobile phase: A) water (0.05% TFA), B) acetonitrile (0.05% TFA) • Gradient: 20-70% B over 15 min, flow 1.0 mL/min
A correlation study was also carried out using Reverse-Phase HPLC (RP-HPLC). The two constructs were injected in RP-HPLC and retention times (Rt) correlated with hydrophobicity - i.e., high Rt was associated to hydrophobic constructs whereas low Rt to hydrophilic ones.

[2] = Aggregation study during conjugation to test antibody (% monomer by SEC); format: physicochemical
Procedure: Aggregation is a process in which molecules self-associate with each other. In the context of the present invention, aggregation levels are assessed during the conjugation of a linker construct to an antibody. During conjugation, aggregation is quantified in terms of percentage monomer content. High percentage monomer values typically equate to a lower degree of aggregation. Percentage monomer values of 93% or 95% or higher typically mean negligible levels of aggregation or none, whereas values below this threshold typically translate to higher levels of aggregation.
2 mg of test monoclonal antibody at 8.87 mg/ml was pH adjusted with 5% 0.5 M Tris, 0.025 M EDTA, pH 8.5 and reduced with 2.3 mol. eq. TCEP and then conjugated with 6mol. eq. drug linker. […] Percentage monomer values of 95% or greater are assessed as low aggregation.
Aggregation levels were assessed during the conjugation to the test antibody.
During conjugation, we are ideally targeting a monomer content or percentage monomer of 95% or above. Low percentage monomer values usually translate to a higher degree of aggregation. One could therefore agree that percentage monomer values of 95% or higher mean very low levels of aggregation or none, whereas values below this threshold often translate to higher levels of aggregation.

Structure (SMILES): CC[C@@]1(O)C(=O)OCc2c1cc1n(c2=O)Cc2c-1nc1cc(F)c(C)c3c1c2[C@@H](NC(=O)OCc1ccc(NC(=O)[C@H](C)NC(=O)[C@@H](NC(=O)CNC(=O)CNC(=O)CNC(=O)CNC(=O)CNC(=O)CCN2C(=O)C=CC2=O)C(C)C)cc1)CC3 [Mal-Gly5-VA-PABC-Exatecan] ({Propanoyl(3-maleimido)}-GGGGGVA[PABC]-Exatecan)
- Rt [1]: 9.76 min
- Aggregation (% monomer) ([2]; % monomer by SEC after conjugation to test monoclonal antibody, 95% or greater assessed as low aggregation): 98%
- Aggregation ([2]; grade in words, drug linker conjugated to test monoclonal antibody (2.3 mol. eq. TCEP, 6 mol. eq. drug linker)): None

From EP4541376A1, “ANTIBODY-DRUG CONJUGATES” (priority 2023, dated 2025)
